Assay results: patent US10646521B2, “Microbiota composition, as a marker of responsiveness to chemotherapy, and use of microbial modulators (pre-, pro- or synbiotics) for improving the efficacy of a cancer treatment” (INSTITUT GUSTAVE ROUSSY, priority 2013, dated 2020)
“Also recorded” adds a separate entry of the source. Structures can show the parent of a compound that is named as a salt.

Columns and labels:
[1] = tested on: splenic pTh17 cells; test: Flow cytometry of splenic pTh17 / TH1 / Tc1 cells; settings: for CTX-mediated pTH17 in the spleen: WT animals treated with NOD agonists
Method: For cross-linking experiment, 2×10^5 total splenocytes per well (after red cell lysis) were incubated in MaxiSorp plates (Nunc) precoated with anti-CD3ε mAb (145-2C11) (0.5 μg per well; eBioscience) and/or anti-CD28 mAb (37.51) (2 μg/ml; BD). The supernatants were assayed at 48 h by ELISA for mouse IL-17A (eBioscience) and IFNγ (BD). […] For intracellular, cells were incubated for 4 h at 37° C. with 50 ng/ml of PMA, 1 μg/ml of ionomycin and BD Golgi STOP™. After membrane staining, cells were stained with anti-IL-17A, IFNγ, T-bet and RORγt using eBioscience FoxP3/Transcription factor staining buffer set.

[2] = tested on: lipocalin-2; test: ELISA monitoring of lipocalin-2 in feces; assay type: in vivo, mice; settings: WT animals treated with NOD agonists
Method: A. Enumeration of bacterial colonies in splenocytes 48 hrs post-CTX therapy in various mouse backgrounds. Splenic cells (left panel) and mesenteric LN (middle panel) harvested from C57BL/6 WT or NOD1^−/−×NOD2^−/− mice were cultured in anaerobic conditions for 48 hours. Bacterial outgrowth was enumerated (number of colonies/plate and frequencies of positive plates/animal (right panel)) and eventually characterized by mass spectrometry for bacterial identification. B. Flow cytometric analyses of pTH17 cells. CD4^+ T cells co-expressing IFN[…]γ in the gate of live IL-17+ T splenocytes in WT versus NOD1 or NOD2 deficient mice C. Idem as in B. but experiment performed in WT animals treated with NOD agonists (MDP and TriDAP) according to the experimental setting aligned in the upper part of the graph. D. ELISA monitoring of lipocalin-2 in the feces of mice according to the experimental setting aligned in C. A representative experiment is shown for A and D. Concatenated data from 2-3 individual experiments including 3 mice/group are depicted in B-C. Anova statistical analyses: *p<0.05, **p<0.01, ***p<0.001.

[3] = tested on: MCA205 sarcomas; assay type: in vivo, C57BL/6 mice
[4] = tested on: commensal bacteria; assay type: in vivo, mice; settings: 48 h after treatment
Method: Mesenteric lymph nodes and spleens were aseptically removed, smashed in PBS and plated onto COS agar plates (BioMérieux), for aerobic and anaerobic growth. After 48 h of culture, single colonies were isolated and stocked in glycerol at −80° C.
(§1) Serial dilutions of feces from naïve mice or tumor bearers treated with NaCl or CTX, vancomycin or broad spectrum antibiotics (ATB) (ampicillin+streptomycin+colistin), were plated onto COS agar plates and after 48 h, single colonies were isolated and Gram staining was performed. The identification of specific bacteria was accomplished through the combination of morphological tests and the analysis through VITEK® automated system (BioMérieux, France) and verified in mass spectrometry (MALDI-TOF, see below) performed at Pasteur Institute, Paris, France.

[5] = tested on: splenocytes; test: TCR cross-linking of splenocytes, IL-17 and IFNγ ELISA; assay type: in vivo, mice
[6] = tested on: small intestine epithelium; settings: mouse, in vivo
Method: The whole small intestine (duodenum, jejunum and ileum) was removed, cleaned from fecal content and fixed in 4% of PFA for 1 h. Re-hydration of the tissue was performed in 15% sucrose for 1 h and in 30% sucrose overnight. Depending on the experiment, the small intestine was entirely rolled, or cut into small pieces, then embedded in optimum cutting temperature (OCT) compound (Sakura), snap frozen and longitudinal or transversal […] were prepared.
For histological analyses, the longitudinal sections were counterstained with hematoxilin and eosin. For the histological quantitative analyses, inflammatory foci, altered villi and the thickness of lamina propria were scored for each section, while the number of goblet cells was counted for each villus. […] Then, a rabbit polyclonal antibody against the lysozyme protein (1:500 for 1 h, Thermo Scientific) and ALEXA FLUOR 488 Fragment of goat anti-rabbit IgG (1:300 for 1 h, Molecular Probes) were used. All steps were performed at room temperature. Lysozyme-positive areas were quantified on mosaic images using the Histolab software (Microvision Instruments). The quantification of Paneth cells was performed measuring the average area of the Lysozyme-positive clusters (group of Paneth cells) as well as the emission/μm^2 of those clusters (not shown).

[7] = tested on: fecal commensal bacteria; test: Culture of fecal commensals under antibiotics; assay type: in vivo, mice; settings: antibiotic in drinking water, tumor bearers
Method: Mice were treated with antibiotics 2-3 weeks before tumor implantation and continued until the end of the experiment. A mix of ampicillin (1 mg/ml)+streptomycin (5 mg/ml)+colistin (1 mg/ml) (Sigma-Aldrich) or vancomycin (0.25 mg/ml) or colistin alone (2·10^3 U/ml) were added in sterile drinking water. Solutions and bottles were changed 2-3 times a week.
as §1

[8] = tested on: lung adenocarcinoma; test: Lung adenocarcinoma-bearing KP mice treated with chemotherapy
Method: Mice were either left untreated or received chemotherapy (d84, d91 and d98) in absence or presence of 0.25 mg/ml vancomycin (mixed into drinking water starting on d77 and until the end of the experiment; antibiotic-containing water was replaced biweekly). Tumor volumes were quantified on d73 and 100 (equivalent of ‘pre’ and ‘post’ chemotherapy) in anesthetized mice by noninvasive imaging as described before (Cortez-Retamozo et al., 2013).

[9] = tested on: MC38-OVAdim tumor cells; test: OVA vaccine + CTX, rechallenge with MC38-OVAdim tumor cells; assay type: in vivo, C56BL/6 mice; settings: antibiotics 20 days, rechallenge at day 50
Method: FIG. 38: Anticancer vaccines combined with CTX promote a long lasting anticancer immunity which depends on gut Gram negative bacteria. A. Experimental setting. C56BL/6 mice were treated with broad spectrum ATB (ampicilline, colistine, streptomycine) or vancomycine (which only kills Gram+ bacteria) or colistine (which only kills Gram− bacteria) for 9 days, received one ip, injection of CTX (100 mg/kg), followed 3 days later by vaccination with OVA protein in CpG adjuvants (or mock vaccines). ATB were stopped after 20 days and animals were left untreated under observation for 1 month. At day 50, all mice were rechallenged with a lethal dose of 10× times the MTD of MC38-OVA^dim tumor cells sc. B. Animals were scored on the basis of tumor outgrowth (featuring no or weak memory T cell response). The percentages of tumor-free mice was recorded for 2 experiments comprising 5 mice/group.*Anova test: p<0.05.

[10] = tested on: tumor-infiltrating lymphocytes; test: Flow cytometry of tumor-infiltrating lymphocytes; assay type: in vivo, mice

CC(=O)N[C@H]1C(O)O[C@H](CO)[C@@H](O)[C@@H]1O[C@H](C)C(=O)N[C@@H](C)C(=O)N[C@H](CCC(=O)O)C(N)=O (mixture of isomers) [myramyl dipeptide]
CTX-mediated pTH17 in the spleen [1]: reducing | release of the antimicrobial peptide lipocalin-2 in stools [2]: promoting the release

C[C@H](N)C(=O)N[C@H](CCC(=O)NC(CCCC(N)C(=O)O)C(=O)O)C(=O)O (some centres unmarked) [TriDAP]
CTX-mediated pTH17 in the spleen [1]: reducing | release of the antimicrobial peptide lipocalin-2 in stools [2]: promoting the release

COc1cccc2c1C(=O)c1c(O)c3c(c(O)c1C2=O)C[C@@](O)(C(=O)CO)C[C@@H]3O[C@H]1C[C@H](N)[C@H](O)[C@H](C)O1 [doxorubicin, Doxorubicin hydrochloride]
dependence of tumor growth reduction on gut commensals ([3]; SPF, ATB-treated and germ-free mice): does not require gut commensals for reducing tumor growth | induction of pTh17 cells in the spleen ([1]; Doxo i.p., splenocytes 7 days later): failed to induce pTh17 cells in the spleen | translocation of commensal bacteria into mesenteric lymph nodes and spleens, compared with CTX [4]: less so | polarization of splenic CD4+ T cells towards Th1 and Th17 pattern ([5]; day 7 after treatment): not found | inflammatory status of the gut epithelial barrier (histology) [6]: shortening of small intestinal villi, discontinuities of the epithelial barrier, interstitial edema and focal accumulation of mononuclear cells in the lamina propria

CN[C@H](CC(C)C)C(=O)N[C@H]1C(=O)N[C@@H](CC(N)=O)C(=O)N[C@H]2C(=O)N[C@H]3C(=O)N[C@H](C(=O)N[C@H](C(=O)O)c4cc(O)cc(O)c4-c4cc3ccc4O)[C@H](O)c3ccc(c(Cl)c3)Oc3cc2cc(c3O[C@@H]2O[C@H](CO)[C@@H](O)[C@H](O)[C@H]2O[C@H]2C[C@](C)(N)[C@H](O)[C@H](C)O2)Oc2ccc(cc2Cl)[C@H]1O [vancomycin]
repertoire of commensal bacteria in feces [7]: biased the repertoire of commensal bacteria towards distinct commensal species | intratumoral CD8+ T effector/Foxp3+ regulatory T cell ratio ([8]; Chemo+Vanco): reduced | effect on the anticancer efficacy of CTX-based chemotherapy ([8]; vancomycin 0.25 mg/ml in drinking water, oxaliplatin plus CTX): inhibitory role; also recorded: compromised | effect on the anti-tumor efficacy of CTX against MCA205 sarcoma ([3]; 3 week conditioning with antibiotic): compromised; also recorded: reduced | effect on CTX-induced accumulation/differentiation of pTh17 in the spleen ([1]; MCA205 tumor bearers, 7 days after CTX): prevented; also recorded: blunts | effect on CTX-induced Th17 conversion ([5]; antibiotic in drinking water): reduced | effect on long term protection of an OVA-based cancer vaccine + CTX against lethal challenge [9]: did not prevent | frequencies of tumor-infiltrating CD3+ T cells and Th1 cells ([10]; MCA205 tumors, 8 days post-CTX): reduced | γδT17 cells in tumor beds post-therapy ([10]; chemotherapy-treated tumors): devoid

colistin
repertoire of commensal bacteria in feces [7]: promoted the outgrowth of E. faecalis | effect on long term protection of an OVA-based cancer vaccine + CTX against lethal challenge [9]: did
